Legend:
Format in all cases: in vivo
[1] = system: green peach aphid (Myzus persicae); experiment: Insecticidal test for green peach aphid in foliar spray assay on cabbage seedlings
Method: Insecticidal Test for Green Peach Aphid (Myzus persicae) in Foliar Spray Assay
Cabbage seedlings grown in 3-inch pots, with 2-3 small (3-5 cm) true leaves, were used as test substrate. The seedlings were infested with 20-50 green peach aphids (wingless adult and nymph) one day prior to chemical application. Four pots with individual seedlings were used for each treatment. Compounds (2 mg) were dissolved in 2 mL of acetone/methanol (1:1) solvent, forming stock solutions of 1000 ppm. The stock solutions were diluted 5× with 0.025% Tween 20 in H2O to obtain the solution at 200 ppm. A hand-held Devilbiss sprayer was used for spraying a solution to both sides of cabbage leaves until runoff. Reference plants (solvent check) were sprayed with the diluent only. Treated plants were held in a holding room for three days at approximately 25° C. and 40% relative humidity (RH) prior to grading. Evaluation was conducted by counting the number of live aphids per plant under a microscope. Insecticidal activity was measured by using Abbott's correction formula are presented in Table 2: Corrected % Control=100*(X−Y)/X
where • X=No. of live aphids on solvent check plants • Y=No. of live aphids on treated plants

[2] = system: beet armyworm (BAW; Spodoptera exigua: Lepidoptera); experiment: Insecticidal test for beet armyworm, 128-well diet tray assay
Method: Insecticidal Test for Beet Armyworm (Spodoptera exigua)
(§1) Bioassays on beet armyworm (BAW; Spodoptera exigua: Lepidoptera) were conducted using a 128-well diet tray assay. Three to five second instar BAW larvae were placed in each well (3 mL) of the diet tray that had been previously filled with 1 mL of artificial diet to which 50 μg/cm^2 of the test compound (dissolved in 50 μL of 90:10 acetone-water mixture) had been applied (to each of eight wells) and then allowed to dry. Trays were covered with a clear self-adhesive cover, and held at 25° C., 14:10 light-dark for six days. Percent mortality was recorded for the larvae in each well; activity in the eight wells was then averaged.

[3] = system: corn earworm (CEW; Helicoverpa zea: Lepidoptera); experiment: Insecticidal test for corn earworm, 128-well diet tray assay
Method: Insecticidal Test for Corn Earworm (Helicoverpa zea)
as §1, with “corn earworm (CEW; Helicoverpa zea:” for “beet armyworm (BAW; Spodoptera exigua:”, “CEW” for “BAW”

Structure (SMILES)	% Mortality GPA 200 ppm [1]	% Mortality BAW 50 μg/cm^2 [2]	% Mortality CEW 50 μg/cm^2 [3]
CCOC(=O)C(C)(C)OC(=O)Nc1ccc(-c2ncn(-c3ccc(OC(F)(F)F)cc3)n2)cc1 [Compound 20]	B (Less than 80)	A (50-100)	A (50-100)
CC(C)(OC(=O)Nc1ccc(-c2ncn(-c3ccc(OC(F)(F)F)cc3)n2)cc1)c1ccccc1 [Compound 21]	B (Less than 80)	A (50-100)	A (50-100)
COc1ccc(CC(C)OC(=O)Nc2ccc(-c3ncn(-c4ccc(OC(F)(F)F)cc4)n3)cc2)cc1 (stereo not drawn) [Compound 22]	B (Less than 80)	A (50-100)	A (50-100)
CCOC(=O)C#CC(C)(C)OC(=O)Nc1ccc(-c2ncn(-c3ccc(OC(F)(F)F)cc3)n2)cc1 [Compound 23, 4-methyl-4-{4-[1-(4-trifluoromethoxyphenyl)-1H-[1,2,4]triazol-3-yl]-phenylcarbamoyloxy}-pent-2-ynoic acid ethyl ester]	B (Less than 80)	B (Less than 50)	B (Less than 50)
CC(OC(=O)Nc1ccc(-c2ncn(-c3ccc(OC(F)(F)F)cc3)n2)cc1)C(F)(F)C(F)(F)F (stereo not drawn) [Compound 24, {4-[1-(4-trifluoromethoxyphenyl)-1H-[1,2,4]triazol-3-yl]phenyl}-carbamic acid 2,2,3,3,3-pentafluoro-1-methyl-propyl ester]	B (Less than 80)	A (50-100)	A (50-100)
CC(C)(C)OC(=O)Nc1ccc(-c2ncn(-c3ccc(OC(F)(F)F)cc3)n2)cc1 [Compound 25]	B (Less than 80)	A (50-100)	A (50-100)
CC(OC(=O)Nc1ccc(-c2ncn(-c3ccc(C(F)(F)F)cc3)n2)cc1)c1ccc(C(F)(F)F)cc1 (stereo not drawn) [Compound 27, 1-(4-(trifluoromethyl)phenyl)ethyl 4-(1-(4-(trifluoromethyl)phenyl)-1H-1,2,4-triazol-3-yl)-phenylcarbamate]	B (Less than 80)	A (50-100)	A (50-100)
CC(OC(=O)Nc1ccc(-c2ncn(-c3ccc(C(F)(F)F)cc3)n2)cc1)c1ccc(C(F)(F)F)nc1 (stereo not drawn) [Compound 28]	B (Less than 80)	A (50-100)	A (50-100)
C#CC(OC(=O)Nc1ccc(-c2ncn(-c3ccc(C(F)(F)F)cc3)n2)cc1)c1ccc(C(F)(F)F)cc1 (stereo not drawn) [Compound 29]	B (Less than 80)	A (50-100)	A (50-100)
CCC(OC(=O)Nc1ccc(-c2ncn(-c3ccc(C(F)(F)F)cc3)n2)cc1)c1ccccc1 (stereo not drawn) [Compound 30]	B (Less than 80)	A (50-100)	A (50-100)
C#CC(OC(=O)Nc1ccc(-c2ncn(-c3ccc(C(F)(F)F)cc3)n2)cc1)c1ccccc1 (stereo not drawn) [Compound 31]	B (Less than 80)	A (50-100)	A (50-100)
CC(C)(CCl)OC(=O)Nc1ccc(-c2ncn(-c3ccc(OC(F)(F)C(F)(F)F)cc3)n2)cc1 [Compound 32]	B (Less than 80)	A (50-100)	A (50-100)
CC(OC(=O)Nc1ccc(-c2ncn(-c3ccc(OC(F)(F)C(F)(F)F)cc3)n2)cc1)c1ccc(C(F)(F)F)nc1 (stereo not drawn) [Compound 33]	B (Less than 80)	A (50-100)	A (50-100)
CCC(OC(=O)Nc1ccc(-c2ncn(-c3ccc(OC(F)(F)C(F)(F)F)cc3)n2)cc1)c1ccccc1 (stereo not drawn) [Compound 34]	B (Less than 80)	A (50-100)	A (50-100)
CC(OC(=O)Nc1ccc(-c2ncn(-c3ccc(OC(F)(F)F)cc3)n2)cc1)c1ccc(I)cc1 (stereo not drawn) [Compound 35]	B (Less than 80)	A (50-100)	A (50-100)
CC(OC(=O)Nc1ccc(-c2ncn(-c3ccc(OC(F)(F)F)cc3)n2)cc1)c1ccc2ccccc2n1 (stereo not drawn) [Compound 36]	B (Less than 80)	A (50-100)	A (50-100)
Cc1cccc(C(C)OC(=O)Nc2ccc(-c3ncn(-c4ccc(OC(F)(F)F)cc4)n3)cc2)n1 (stereo not drawn) [Compound 37]	B (Less than 80)	A (50-100)	A (50-100)
CC(C)c1ccc(C(C)OC(=O)Nc2ccc(-c3ncn(-c4ccc(OC(F)(F)F)cc4)n3)cc2)cc1 (stereo not drawn) [Compound 38]	B (Less than 80)	A (50-100)	A (50-100)
CC(OC(=O)Nc1ccc(-c2ncn(-c3ccc(OC(F)(F)F)cc3)n2)cc1)c1ccc(Br)cc1 (stereo not drawn) [Compound 39]	B (Less than 80)	A (50-100)	A (50-100)
CC(OC(=O)Nc1ccc(-c2ncn(-c3ccc(OC(F)(F)F)cc3)n2)cc1)c1ccc(C(C)(C)C)cc1 (stereo not drawn) [Compound 40]	B (Less than 80)	A (50-100)	A (50-100)
CC(OC(=O)Nc1ccc(-c2ncn(-c3ccc(OC(F)(F)F)cc3)n2)cc1)c1ccc(C(F)(F)F)nc1 (stereo not drawn) [Compound 41]	B (Less than 80)	A (50-100)	A (50-100)
CC(OC(=O)Nc1ccc(-c2ncn(-c3ccc(OC(F)(F)F)cc3)n2)cc1)c1ccc(C(F)(F)F)cc1 (stereo not drawn) [Compound 42]	B (Less than 80)	A (50-100)	A (50-100)
O=C(Nc1ccc(-c2ncn(-c3ccc(OC(F)(F)F)cc3)n2)cc1)OC(c1ccccc1)c1ccc(C(F)(F)F)cc1 (stereo not drawn) [Compound 43]	B (Less than 80)	A (50-100)	A (50-100)
C#Cc1ccc(C(C)OC(=O)Nc2ccc(-c3ncn(-c4ccc(OC(F)(F)F)cc4)n3)cc2)cc1 (stereo not drawn) [Compound 44]	B (Less than 80)	A (50-100)	A (50-100)
CC(OC(=O)Nc1ccc(-c2ncn(-c3ccc(OC(F)(F)F)cc3)n2)cc1)c1ccc(C#N)cc1 (stereo not drawn) [Compound 45]	B (Less than 80)	A (50-100)	A (50-100)
CC(OC(=O)Nc1ccc(-c2ncn(-c3ccc(OC(F)(F)F)cc3)n2)cc1)c1ccccn1 (stereo not drawn) [Compound 46]	B (Less than 80)	A (50-100)	A (50-100)
Cc1ccc(C(C)OC(=O)Nc2ccc(-c3ncn(-c4ccc(OC(F)(F)F)cc4)n3)cc2)cn1 (stereo not drawn) [Compound 47]	B (Less than 80)	A (50-100)	A (50-100)
CC(OC(=O)Nc1ccc(-c2ncn(-c3ccc(OC(F)(F)F)cc3)n2)cc1)c1ccncc1 (stereo not drawn) [Compound 48]	B (Less than 80)	A (50-100)	A (50-100)
